Data published in PubChem BioAssay AID1996.
≈ marks a conversion by molar mass, not a printed value.

Settings: buffer; pH 7.4; 200.0 µM

Row | Compound | solubility kinetic
1 | CCOC(=O)c1cccc(NC(=O)CC2Oc3ccccc3NC2=O)c1 (stereo not given) | 1.8 µg/mL (≈ 5.08 µM)
2 | O=C(COc1cccnc1[N+](=O)[O-])Nc1cc(Cl)ccc1Cl | 2.9 µg/mL (≈ 8.48 µM)
3 | CCC(C)n1c(O)c(C=NC(C)c2ccccc2)c(=O)[nH]c1=S (stereo not given) | 4.3 µg/mL (≈ 13 µM)
4 | Cc1ccc(C(=O)NC2CCCC2)s1 | 29.9 µg/mL (≈ 143 µM)
5 | CCOC(=O)c1ccc(NC(=S)NCc2ccco2)cc1 | > 45.7 µg/mL
6 | COc1ccccc1N1C(=S)NC2CS(=O)(=O)CC21 (stereo not given) | > 44.8 µg/mL
7 | CCOc1cc(/C=C/C(=O)OCC(=O)NCC2CCCO2)cc(Cl)c1OC (stereo not given) | 52.7 µg/mL (≈ 132 µM)
8 | CC1CCCC(NC(=O)c2ccc3c(c2)OCO3)C1C (stereo not given) | > 41.3 µg/mL
9 | O=C(c1ccc(N2C(=O)c3ccccc3C2=O)cc1)N1CCCCC1 | > 50.2 µg/mL
10 | CSc1nc2c(C)c(C)c(C)c(C)c2[nH]1 | 3.2 µg/mL (≈ 14.5 µM)
11 | O=C(COC(=O)c1cccnc1Cl)NCCc1ccccc1 | > 47.8 µg/mL
12 | O=C1CN(C(=O)NCC(=O)N2CCCC2)c2ccccc2N1 | > 45.3 µg/mL
13 | Cc1ccc(CSc2ncnc3onc(C)c23)cc1 | < 0.2 µg/mL
14 | O=C(CNC(=O)c1ccc(=O)[nH]c1)Nc1ccc(F)c(F)c1 | > 46.1 µg/mL
15 | Cc1cccc(-c2noc(-c3ccc4c(c3)OCO4)n2)c1 | < 0.3 µg/mL
16 | Cc1onc(-c2ccccc2Cl)c1C(=O)N1CCCCC1 | > 45.7 µg/mL
17 | CN(Cc1cccc(F)c1)C(=O)C1CC(=O)N(c2ccc3c(c2)OCCO3)C1 (stereo not given) | > 57.7 µg/mL
18 | Cc1cc(/C=C2\SC(=O)NC2=O)c(C)n1-c1ccc(N(C)C)cc1 | < 0.2 µg/mL
19 | O=C(CN1C(=O)S/C(=C\c2ccc(C(=O)O)cc2)C1=O)Nc1ccccc1 | 32.2 µg/mL (≈ 84.2 µM)
20 | CC(C(=O)O)N1C(=O)C2C3c4ccccc4C(c4ccccc43)[C@@H]2C1=O (stereo not given in full) | > 52.1 µg/mL

Row | Compound | solubility kinetic
21 | Cc1cccc(NC(=S)NCCc2ccc(Cl)cc2)c1C | 0.6 µg/mL (≈ 1.88 µM)
22 | C=CCN1CCN(C(=O)CCc2ccccc2)CC1 | 35.6 µg/mL (≈ 138 µM)
23 | Cc1noc(C)c1C(=O)N1CCC(CO)(Cc2ccccc2)CC1 | 42 µg/mL (≈ 128 µM)
24 | O=C(NCc1ccncc1)C(=O)NC1CC1 | > 32.9 µg/mL
25 | Cc1ccccc1S(=O)(=O)NC(=NCc1ccc(F)cc1)c1ccccc1 | 34.1 µg/mL (≈ 89.2 µM)
26 | FC(F)(F)c1cccc(-c2nc(COc3ccc(Cl)cc3Cl)no2)c1 | < 0.4 µg/mL
27 | N#Cc1ccccc1COC(=O)c1ccc2c(c1)OCCO2 | 10.9 µg/mL (≈ 36.9 µM)
28 | CNC(=S)Nc1ccc(OCc2ccccc2)cc1 | 29.5 µg/mL (≈ 108 µM)
29 | Cc1ccc(N2CCN(C(=O)NC3CCCCC3)CC2C)cc1 (stereo not given) | > 47.3 µg/mL
30 | O=C(O)C1CCCN(C(=O)c2cccc3ccccc23)C1 (stereo not given) | > 42.5 µg/mL
31 | COc1cc(/C=C(\NC(C)=O)C(=O)O)cc(OC)c1OC | > 44.3 µg/mL
32 | O=C(COC(=O)COc1ccccc1)Nc1ccc(Br)cc1F | 12.3 µg/mL (≈ 32.2 µM)
33 | Cc1ccc(S(=O)(=O)N2CCOCC2)cc1NC(=O)COC(=O)c1ccc(Cl)s1 | 3 µg/mL (≈ 6.54 µM)
34 | COc1cccc(NC(=S)N(C)C2CCN(C)CC2)c1 | > 44 µg/mL
35 | Cc1cccc(OCC(=O)NCc2cc(C)nc3ccccc23)c1 | 5 µg/mL (≈ 15.6 µM)
36 | Cc1ccc(C(=O)NCCOc2ccc(Cl)cc2)cc1 | 3.4 µg/mL (≈ 11.7 µM)
37 | COc1ccc(Nc2nccc3c2ncn3C)cc1 | > 38.1 µg/mL
38 | Cc1c(Cl)cccc1Nc1ncccc1C(=O)O | 34 µg/mL (≈ 129 µM)
39 | CC(=O)c1ccc(N=C2NC(=O)C(CO)(CO)S2)cc1 | 43.2 µg/mL (≈ 147 µM)
40 | NC(=O)c1c(NC(=O)c2ccc(F)cc2)sc2c1CCC2 | 0.7 µg/mL (≈ 2.3 µM)

Row | Compound | solubility kinetic
41 | Cc1cc(Cl)ccc1NS(=O)(=O)c1c(C)[nH]c(=O)[nH]c1=O | > 49.5 µg/mL
42 | O=C(Nc1cscc1S(=O)(=O)c1ccc(Cl)cc1)c1ccccc1Cl | 2.6 µg/mL (≈ 6.31 µM)
43 | CC(C)CCNC(=O)COc1ccc(C(=O)c2ccccc2)cc1 | 13.5 µg/mL (≈ 41.5 µM)
44 | CCCSc1nc2sc3c(c2c(=O)[nH]1)CC(C)(CC)OC3 (stereo not given) | 1.5 µg/mL (≈ 4.62 µM)
45 | O=C1CCCN1CCCNc1ncnc2sccc12 | > 41.5 µg/mL
46 | O=C(CS(=O)(=O)c1ccc2ccccc2c1)N1CCCCCC1 | 47.1 µg/mL (≈ 142 µM)
47 | O=C1Nc2cc(Br)ccc2C1(O)c1ccccc1O (stereo not given) | > 48 µg/mL
48 | COc1ccc(CNC(=O)c2sccc2C)cc1 | > 39.2 µg/mL
49 | O=C(CNC(=O)c1ccc(OC(F)F)cc1)NC1CCCc2ccccc21 (stereo not given) | 5.6 µg/mL (≈ 15 µM)
50 | COC(=O)Cc1c(O)ccn(CCc2ccccc2)c1=O | > 43.1 µg/mL
51 | O=C(COC(=O)c1ccncc1)c1ccc(Cl)c(Cl)c1 | 39.8 µg/mL (≈ 128 µM)
52 | O=C(CC(c1ccccc1)c1ccccc1)NCCOCc1ccccc1 | 20.1 µg/mL (≈ 55.9 µM)
53 | COc1ccc(C(=O)N2CCN(CC(=O)N3CCOCC3)CC2)cc1 | 40.6 µg/mL (≈ 117 µM)
54 | CCC1CCCCN1C(=O)CCCc1ccccc1 (stereo not given) | 33.2 µg/mL (≈ 128 µM)
55 | COc1ccccc1CNc1cncnc1 | 28.2 µg/mL (≈ 131 µM)
56 | Cc1cccc(N2CCN(CC3CCCCC3)CC2)c1C | 2.9 µg/mL (≈ 10.1 µM)
57 | O=C(COc1ccc2c(c1)OCO2)NCc1cccs1 | > 43.7 µg/mL
58 | O=S(=O)(c1ccccc1)N1CC=C(c2ccccc2)CC1 | 1.1 µg/mL (≈ 3.67 µM)
59 | O=C1CSC(=Nc2ccc(O)cc2)N1 | > 31.2 µg/mL
60 | CN(CCOc1ccc(CC2SC(=O)NC2=O)cc1)c1ccccn1.O=C(O)/C=C\C(=O)O (stereo not given) | 68.2 µg/mL
